Test results from patent US7655430B2, “Method for analyzing residual agricultural chemical” (priority 2004, dated 2010).

Assays:
choline esterase [1] = test: choline esterase inhibition, inhibitory signal from hydrogen peroxide generated (choline esterase/choline oxidase, acetylcholine substrate); format: biochemical
Description: In this Example, it was intended to confirm the derivatization of carbosulfan (see FIG. 2). Carbosulfan was converted into carbofuran by adding a reduced glutathione (GSH), to a concentration of 5×10^−5M, and a glutathione-transferase (GST), to a concentration of 0.025 U/mL, to 10 mL of a 0.02M Mes buffer solution (pH 6.0) (2-morpholino-ethane sulfonic acid) containing carbosulfan in a variety of concentrations and then allowing each resulting reaction system to stand over at least 30 minutes.
Then, 10 mL of a solution containing 0.1M phosphate buffer solution (pH 7.6) and 0.2M potassium chloride was added to the foregoing solution which had been allowed to stand, to thus obtain a solution having a volume of 20 mL. […]
After bringing these components into contact with one another by allowing them to stand, acetylcholine was added to a concentration of 2×10^−4M to the foregoing solution and then the amount of hydrogen peroxide generated was determined to thus inspect the solution for the activity to inhibit the choline esterase activity. The same solution free of a carbosulfan was used as a control and this was compared with the solutions, which included carbosulfan in a variety of concentrations, based on the detected inhibitory signals corresponding to the quantities of the resulting hydrogen peroxide. […]

choline esterase [2] = conditions: background description, no test described; cited from earlier work

| Structure (SMILES) | calibration curve of inhibitory signal (FIG. 3) (choline esterase [1]; after conversion with reduced glutathione (5×10^−5M) and glutathione transferase (0.025 U/mL), at least 30 minutes) | inhibitory activity (inhibitory signal, calibration curve FIG. 3) (choline esterase [1]; reference material free of conversion with reduced glutathione and glutathione transferase) | ability to inhibit choline esterase (choline esterase [2]) |
| --- | --- | --- | --- |
| CCCCN(CCCC)SN(C)C(=O)Oc1cccc2c1OC(C)(C)C2 [carbosulfan] | almost identical to that observed for the reference material of carbofuran | only a weak inhibitory activity |  |
| CNC(=O)Oc1cccc2c1OC(C)(C)C2 [carbofuran] |  |  | strong activity of inhibiting choline esterase activity |
